Data: EP4741389A1, “KAT6 INHIBITOR” (Shanghai Qilu Pharmaceutical Research and Development …, priority 2023, dated 2025)

Key:
KAT6A = target: T1, KAT6A (Homo sapiens, UniProt Q92794); test: KATs acetyltransferase enzyme activity assay (TR-FRET), KAT6A; assay type: biochemical; conditions: Biotin-H3 (1-21) and AcCOA, 90 minutes at room temperature
T1 construct: purchased Active Motif 81223

[1] = test system: human breast cancer ZR-75-1 cell xenografts; test: In vivo efficacy study in BALB/c nude mouse model with subcutaneous ZR-75-1 xenografts; conditions: for T/C / TGI / Tumor Volume: 0.3 mg/kg; for T/C / TGI: based on tumor volume on day 21 post-administration; for Tumor Volume: day 21 post-administration, female BALB/c nude mice, 7 per group; for anti-tumor effects: ZR-75-1 xenograft model, tumor growth curves FIG. 2, result in words
From the text: IV. In vivo efficacy study of test drug Compound 2, Compound 5-P2, Compound 3, and Compound A in a BALB/c nude mouse model with subcutaneously implanted human breast cancer ZR-75-1 cell xenografts
The objective of this experiment is to evaluate the in vivo efficacy of the test drug Compound 2, Compound 5-P2, Compound 3, and Compound A in a BALB/c nude mouse model with subcutaneously implanted human breast cancer ZR-75-1 cell xenografts.
• Species: Mouse; • Strain: BALB/c nude mice; • Age and weight: 6-8 weeks old, weighing 19-26 grams; • Gender: Female; • Supplier: GemPharmatech Co., Ltd.; • Compound source: Compound A: [drawing 190] prepared with reference to patent CN114364672A.
Human breast cancer ZR-75-1 (ATCC, CRL-1500) cells were cultured in vitro as adherent cultures. The culture conditions were: 1640 medium supplemented with 10 vol% FBS, 100 U/mL penicillin, and 100 µg/mL streptomycin, incubated in a 37°C, 5% CO2 cell culture incubator. Routine passaging was performed twice a week. When cell confluence reached 80%-90% and the cell number met the requirements, cells were harvested, counted, and inoculated.
Three days before cell implantation, a 17β-estrogen pellet (0.36 mg) was implanted into the left dorsal side of each mouse. Starting one week after pellet implantation, animals were urinated 2-3 times per week. If necessary, animals were urinated daily.
A mixture containing 10×10^6 ZR-75-1 cells in 100 µL PBS and 100 µL Matrigel (final volume was 200 µL) was subcutaneously implanted into the right dorsal side (upper side) of each mouse. On day 18 after cell implantation, when the average tumor volume reached 138 mm^3, grouping and administration were initiated. Mice with tumor volumes ranging from 100 to 212 mm^3 were selected for the study. Mice were randomly assigned to groups based on body weight and tumor volume, with 7 mice per group. The day of grouping was designated as PG-D0, and administration for all groups started from PG-D0.
The experimental index is to investigate whether tumor growth is inhibited, delayed, or cured. Tumor diameters were measured three times per week using a vernier caliper. Tumor volume was calculated using the formula: V = 0.5a × b^2, where a and b represent the major and minor diameters of the tumor, respectively.
The anti-tumor efficacy of the compounds was evaluated using TGI (%) or the relative tumor proliferation rate T/C (%). TGI (%), reflects the tumor growth inhibition rate. TGI (%) was calculated as: TGI (%) = [1 - (Mean tumor volume of a treatment group at the end of administration - Mean tumor volume of the same treatment group at the start of administration) / (Mean tumor volume of the vehicle control group at the end of treatment - Mean tumor volume of the vehicle control group at the start of treatment)] × 100%.
Relative Tumor Proliferation Rate T/C (%): The calculation formula is as follows: T/C% = TRTV / CRTV ×100 % (TRTV: RTV of the treatment group; CRTV: RTV of the negative control group). The relative tumor volume (RTV) was calculated based on tumor measurement results using the formula RTV = Vt /V0, where V0 is the tumor volume of each mouse measured at the start of grouping and administration (i.e., d0), and Vt is the tumor volume of each mouse at a specific measurement time. The mean value for each group was then calculated. V0 and Vt correspond to tumor volume data from the same mouse.

[2] = test system: ZR-75-1 H3K23 Acetylation; test: Histone H3 acetylation assay (H3K23 acetylation in ZR-75-1 cells); assay type: cell-based; conditions: Homo sapiens, 72 hours incubation, Odyssey CLx fluorescence, read-out: ZR-75-1 H3K23 Acetylation Inhibition IC50
In short: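 ZR-75-1 cells exposed to serially diluted compounds for 72 h at 37°C, then fixed with 4 w/v% paraformaldehyde, methanol-permeabilized and immunostained for acetyl-H3K23 and total histone H4. Fluorescent secondary antibody signals quantified by imaging; IC50 from four-parameter logistic nonlinear regression.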

T1 sequence (Q92794 488-778 limits assumed): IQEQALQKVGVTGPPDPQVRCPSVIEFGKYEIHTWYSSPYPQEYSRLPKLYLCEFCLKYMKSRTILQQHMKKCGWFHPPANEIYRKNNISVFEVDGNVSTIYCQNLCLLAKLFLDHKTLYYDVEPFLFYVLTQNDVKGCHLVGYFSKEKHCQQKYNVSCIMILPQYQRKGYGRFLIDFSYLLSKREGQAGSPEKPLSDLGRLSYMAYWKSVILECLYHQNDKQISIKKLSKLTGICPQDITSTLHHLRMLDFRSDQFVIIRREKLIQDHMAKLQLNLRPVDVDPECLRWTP

SMILES | IC50 (KAT6A) [nM] | T/C [1] [%] | TGI [1] [%] | Tumor Volume [1] [mm^3] | anti-tumor effects [1] | IC50 [2] [nM]
COc1ccc2c(c1S(=O)(=O)Nc1noc3cc(Cn4cccn4)cc(OC)c13)OCCCO2 [Compound 2, N-(6-((1H-Pyrazol-1-yl)methyl)-4-methoxybenzo[d]isoxazol-3-yl)-7-methoxy-3,4-dihyd ro-2H-benzo[b][1,4]dioxepine-6-sulfonamide] | 3.2 | 20.83 | 93.97 | 182 ± 39 | more significant anti-tumor effects compared to Compound A | 5.1
COc1ccc2c(c1S(=O)(=O)Nc1noc3cc(Cn4cccn4)cc(OC)c13)OC[C@@H]1C[C@H]21 [Compound 5-P2, (1aR,7bS)-N-(6-((1H-Pyrazol-1-yl)methyl)-4-methoxybenzo[d]isoxazol-3-yl)-5-methoxy-1,1a,2,7b-tetrahydrocyclopropa[c]chromene-4-sulfonamide] | 1.1 | 12.10 | 105.10 | 102 ± 14 | more significant anti-tumor effects compared to Compound A | 0.5
